Measurements as given in patent publication US10149876B2, “Tripterygium wilfordii extracts to overcome chemotherapy resistance” (WESTERN UNIVERSITY OF HEALTH SCIENCES, priority 2012, dated 2018).
“And” between values parts separate entries of the source, which are not always exact repeats. Equal entries are not always repeated.

Tests used:
[1] = test system: PC3 cells; assay: SRB cell viability assay, docetaxel-sensitive PC3 cells; assay type: cell-based; conditions: Homo sapiens, PC-3; read-out: IC50 of drug when cells treated with drug only
Protocol: The chemotherapeutic drugs that were tested for chemosensitization in combination with LTG-E were docetaxel, daunorubicin, Herceptin®, and lapatinib. […] Table 17 also contains the serially-diluted concentrations of drugs that each cell line was tested against.

[2] = test system: K562 cells; assay: SRB cell viability assay, daunorubicin-sensitive K562 cells; assay type: cell-based, human; conditions: 72 h, background = 0.044; for mean A at 565 nm: no LGT-E pre-treatment; for mean A at 516 nm: pre-treated with 25 μg/ml LGT-E
Protocol: Cell culture of the above cell lines was performed as described in Example 2, except that 5,000, rather than 3,000 cells were plated per well for the K562, K562/Dox, BT474, SkBr3 lines.
Table 17 also contains the serially-diluted concentrations of drugs that each cell line was tested against.
Table 36 reports the cell viability data relating to pre-treatment with LTG-E prior to daunorubicin treatment. Table 37 reports control data obtained from cells that were not pre-treated with LGT-E prior to daunorubicin treatment. FIG. 15 summarizes the data of Tables 36 and 37 in a graphical format.

[3] = Docetaxel 0.001 nM (so in the source)
[4] = Docetaxel 0.1 nM (so in the source)
[5] = Docetaxel 3.33 nM (so in the source)
[6] = Docetaxel 10 nM (so in the source)
[7] = Docetaxel 33.3 nM (so in the source)
[8] = Docetaxel 100 nM (so in the source)

## CC(=O)O[C@@]12CO[C@@H]1C[C@H](O)[C@@]1(C)C(=O)[C@H](O)C3=C(C)[C@@H](OC(=O)[C@H](O)[C@@H](NC(=O)OC(C)(C)C)c4ccccc4)C[C@@](O)([C@@H](OC(=O)c4ccccc4)[C@H]21)C3(C)C [Docetaxel, docetaxel]
[1]
  IC50: 1.8 nM and 0.00145 µg/mL
[2]; [3]
  mean A at 565 nm: 2.844
  mean A at 516 nm: 2.860
[2]; [4]
  mean A at 565 nm: 2.874
  mean A at 516 nm: 2.851
[2]; Docetaxel 0.333 nM (so in the source)
  mean A at 565 nm: 2.274
[2]; Docetaxel 1 nM (so in the source)
  mean A at 565 nm: 1.414
[2]; [5]
  mean A at 565 nm: 1.269
  mean A at 516 nm: 1.331
[2]; [6]
  mean A at 565 nm: 0.732
  mean A at 516 nm: 1.148
[2]; [7]
  mean A at 565 nm: 0.300
  mean A at 516 nm: 0.723
[2]; [8]
  mean A at 565 nm: 0.436
  mean A at 516 nm: 0.553
